Each structure is given as a SMILES string. Counter-ions that a name gives are not always drawn. Bounds are passed on as bounds.

The target of the first assay is T1, AhR (Homo sapiens, UniProt P35869).
T1 construct: host or cells: HepG2
T1 sequence (P35869 11-848): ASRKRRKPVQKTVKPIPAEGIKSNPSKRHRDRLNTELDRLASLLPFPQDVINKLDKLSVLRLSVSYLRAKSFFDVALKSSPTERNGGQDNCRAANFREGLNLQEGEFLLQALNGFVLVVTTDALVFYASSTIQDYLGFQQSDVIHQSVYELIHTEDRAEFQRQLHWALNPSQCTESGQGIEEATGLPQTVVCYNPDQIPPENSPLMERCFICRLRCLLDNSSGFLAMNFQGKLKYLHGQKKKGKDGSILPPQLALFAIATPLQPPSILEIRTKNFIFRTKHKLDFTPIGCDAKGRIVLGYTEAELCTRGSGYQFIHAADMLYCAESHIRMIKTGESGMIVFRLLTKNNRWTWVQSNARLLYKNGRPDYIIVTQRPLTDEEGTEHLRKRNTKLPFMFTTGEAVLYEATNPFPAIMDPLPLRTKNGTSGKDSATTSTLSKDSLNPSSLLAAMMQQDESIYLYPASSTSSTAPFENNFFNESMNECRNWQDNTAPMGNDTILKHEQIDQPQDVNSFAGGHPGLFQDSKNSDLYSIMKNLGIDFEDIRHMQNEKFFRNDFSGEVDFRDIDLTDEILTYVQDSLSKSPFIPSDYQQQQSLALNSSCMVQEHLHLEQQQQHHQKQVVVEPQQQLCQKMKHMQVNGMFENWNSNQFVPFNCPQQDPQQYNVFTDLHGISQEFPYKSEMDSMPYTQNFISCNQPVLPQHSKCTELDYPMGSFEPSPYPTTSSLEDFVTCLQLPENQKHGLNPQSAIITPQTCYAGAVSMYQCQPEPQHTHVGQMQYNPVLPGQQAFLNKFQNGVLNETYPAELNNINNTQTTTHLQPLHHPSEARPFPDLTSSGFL
The assay is described as follows: In vitro assay 1: XRE-luciferase reporter assay, antagonism in human cell line (HepG2). The assay is classed as cell-based.
Details: not given
From the text: In Vitro XRE-Luciferase Reporter Assay (In Vitro Assay 1, 2, 3)
AhR activation leads the induction of target gene expression such as CYP1A1 and CYP1B1 by AhR binding to AhR-responsive DNA elements also known as xenobiotics responsive elements (XRE). The assay for measuring AhR activity herein is the luciferase assay using cell lines transfected with luciferase reporter plasmid containing XREs at the upstream of the reporter gene. Cells transfected with XRE-luciferase reporter (XRE-Luc) plasmid drive luciferase activity reflecting activation and inhibition of AhR in the cells. In addition to transfection with XRE-reporter vector, cells were co-transfected with Nano-luciferase reporter gene construct (Nano-Luc) containing constitutively active promoter as internal control. Kynurenine (an endogenous AhR agonist) was used to stimulate cells to test antagonistic properties of the compounds. The half-maximal inhibitory concentration (IC50) or half-maximal effective concentration (EC50) value was calculated using nonlinear regression (four parameters) with Prism8.0 software (GraphPad).
In Vitro Assay 1: Antagonism in Human Cell Line
HepG2 (human hepatoma cell line) cell line with a XRE-luciferase reporter either transiently or stably (Invivogen) were plated in complete medium and incubated at 37° C. in a CO2 incubator. After 24 hours, cells were treated with kynurenine (50* or 200 μM) alone (negative control) or with test compounds for 6 hours. Luciferase activity was measured with a commercial kit such as the Promega Luciferase kit or other reagents for measuring luciferase activity. Relative luciferase activity (Firefly/Nano-Luc) was used to calculate IC50 values. The relative luciferase activity was further normalized with kynurenine alone group as the maximum control and the vehicle group as the minimum control. (IC50 values are grouped as A, B, C and D, whereby A: IC50<0.01 μM; B: 0.01<IC50<0.1 μM; C: 0.1<IC50<1.0 μM; D: IC50>1.0 μM)
For orientation: IC50 means the concentration at which inhibition is half-maximal. `CCOP(=O)(OCC)OCC(C)n1cnc2c(-c3cccnc3)nc(-c3ccc(Cl)cc3)cc2c1=O` (stereo not drawn) [Example 47, 2-(6-(4-chlorophenyl)-4-oxo-8-(pyridin-3-yl)pyrido[3,4-d]pyrimidin-3(4H)-yl)propyl diethyl phosphate] came in with an IC50 of 10 to 100 nM.

Staying with this assay, now noted: HepG2 XRE-luciferase, cells treated with kynurenine 50 μM (*), 6 hours; read-out: Assay 1: AhR-Luc Human Antagonism (IC50).
In the case of `CCC(CO)n1cnc2c(-c3cccnc3)nc(-c3ccc(C(F)(F)F)cc3)cc2c1=O` (stereo not drawn) [Example 53, 3-(1-hydroxybutan-2-yl)-8-(pyridin-3-yl)-6-(4-(trifluoromethyl)phenyl)pyrido[3,4-d]pyrimidin-4(3H)-one], the IC50 was above 1000 nM. Take `CCC(CO)n1cnc2c(-c3cnn(C)c3)nc(-c3ccc(C(F)(F)F)cc3)cc2c1=O` (stereo not drawn) [Example 54, 3-(1-hydroxybutan-2-yl)-8-(1-methyl-1H-pyrazol-4-yl)-6-(4-(trifluoromethyl)phenyl)pyrido[3,4-d]pyrimidin-4(3H)-one]: the half-maximal inhibitory concentration (IC50) was above 1000 nM.

Still in this assay, the particulars now being: HepG2 XRE-luciferase, cells treated with kynurenine 200 μM (no *), 6 hours; read-out: Assay 1: AhR-Luc Human Antagonism (IC50).
Turning to `O=c1c2cc(-c3ccc(C(F)(F)F)cc3)nc(-c3cccnc3)c2ncn1[C@H]1CC[C@@H](O)C1` [Example 33, 3-((1S,3R)-3-hydroxycyclopentyl)-8-(pyridin-3-yl)-6-(4-(trifluoromethyl)phenyl)pyrido[3,4-d]pyrimidin-4(3H)-one], the IC50 is below 10 nM. For `Cn1cc(-c2nc(-c3ccc(Cl)cc3)cc3c(=O)n([C@H]4CC[C@@H](O)C4)cnc23)cn1` [Example 34, 6-(4-chlorophenyl)-3-((1S,3R)-3-hydroxycyclopentyl)-8-(1-methyl-1H-pyrazol-4-yl)pyrido[3,4-d]pyrimidin-4(3H)-one], the half-maximal inhibitory concentration (IC50) is below 10 nM. For `Cn1cc(-c2nc(-c3ccc(C(F)(F)F)cc3)cc3c(=O)n([C@H]4CC[C@@H](O)C4)cnc23)cn1` [Example 35, 3-((1S,3R)-3-hydroxycyclopentyl)-8-(1-methyl-1H-pyrazol-4-yl)-6-(4-(trifluoromethyl)phenyl)pyrido[3,4-d]pyrimidin-4(3H)-one], the 50% inhibitory concentration (IC50) is below 10 nM. As to `CC(=O)OC(C)(C)Cn1cnc2c(-c3cccnc3)nc(-c3ccc(Cl)cc3)cc2c1=O` [Example 36, 1-(6-(4-chlorophenyl)-4-oxo-8-(pyridin-3-yl)pyrido[3,4-d]pyrimidin-3(4H)-yl)-2-methylpropan-2-yl acetate], the 50% inhibitory concentration (IC50) is 10 to 100 nM. In the case of `CC(=O)OC(C)(C)Cn1cnc2c(-c3cccnc3)nc(-c3ccc(C(F)(F)F)cc3)cc2c1=O` [Example 37, 2-methyl-1-(4-oxo-8-(pyridin-3-yl)-6-(4-(trifluoromethyl)phenyl)pyrido[3,4-d]pyrimidin-3(4H)-yl)propan-2-yl acetate], the IC50 is below 10 nM. On to `CC(C)(O)Cn1cnc2c(-c3cccnc3)nc(-c3ccc(C(F)(F)F)cc3)cc2c1=O` [Example 39, 3-(2-hydroxy-2-methylpropyl)-8-(pyridin-3-yl)-6-(4-(trifluoromethyl)phenyl)pyrido[3,4-d]pyrimidin-4(3H)-one], for which the concentration for half-maximal inhibition (IC50) is above 1000 nM. For `CC(C)(O)Cn1cnc2c(-c3cccnc3)nc(-c3ccc(C(F)(F)F)nc3)cc2c1=O` [Example 40, 3-(2-hydroxy-2-methylpropyl)-8-(pyridin-3-yl)-6-(6-(trifluoromethyl)pyridin-3-yl)pyrido[3,4-d]pyrimidin-4(3H)-one], the IC50 was below 10 nM. With `CC(C)C(CO)n1cnc2c(-c3cccnc3)nc(-c3ccc(Cl)cc3)cc2c1=O` (stereo not drawn) [Example 41, 6-(4-chlorophenyl)-3-(1-hydroxy-3-methylbutan-2-yl)-8-(pyridin-3-yl)pyrido[3,4-d]pyrimidin-4(3H)-one], the IC50 is above 1000 nM. Consider `CC(C)C(CO)n1cnc2c(-c3cccnc3)nc(-c3ccc(C(F)(F)F)cc3)cc2c1=O` (stereo not drawn) [Example 42, 3-(1-hydroxy-3-methylbutan-2-yl)-8-(pyridin-3-yl)-6-(4-(trifluoromethyl)phenyl)pyrido[3,4-d]pyrimidin-4(3H)-one], for which the 50% inhibitory concentration (IC50) is above 1000 nM. On to `CC(C)C(CO)n1cnc2c(-c3cccnc3)nc(-c3ccc(C(F)(F)F)nc3)cc2c1=O` (stereo not drawn) [Example 43, 3-(1-hydroxy-3-methylbutan-2-yl)-8-(pyridin-3-yl)-6-(6-(trifluoromethyl)pyridin-3-yl)pyrido[3,4-d]pyrimidin-4(3H)-one], for which the IC50 was above 1000 nM.

In the case of `O=c1c2cc(-c3ccc(Cl)cc3)nc(-c3cccnc3)c2ncn1C1CCC(O)CC1` (stereo not drawn) [Example 58, 6-(4-chlorophenyl)-3-((1s,4s)-4-hydroxycyclohexyl)-8-(pyridin-3-yl)pyrido[3,4-d]pyrimidin-4(3H)-one], the IC50 is below 10 nM.

For `CC(CO)N1CNc2c(cc(-c3ccc(Cl)cc3)nc2-c2cccnc2)C1=O` (stereo not drawn) [Example 60], the IC50 was 10 to 100 nM. Turning to `O=c1c2cc(-c3ccc(Cl)cc3)nc(-c3cccnc3)c2ncn1-c1cccc(O)c1` [Example 61, 6-(4-chlorophenyl)-3-(3-hydroxyphenyl)-8-(pyridin-3-yl)pyrido[3,4-d]pyrimidin-4(3H)-one], the IC50 is below 10 nM.

As to `O=c1c2cc(-c3ccc(C(F)(F)F)cc3)nc(-c3cccnc3)c2ncn1-c1cccc(O)c1` [Example 62, 3-(3-hydroxyphenyl)-8-(pyridin-3-yl)-6-(4-(trifluoromethyl)phenyl)pyrido[3,4-d]pyrimidin-4(3H)-one], the concentration for half-maximal inhibition (IC50) was below 10 nM. With `O=c1c2cc(-c3ccc(Cl)cc3)nc(-c3cccnc3)c2ncn1C1CCCC(O)C1` (stereo not drawn) [Example 63, 6-(4-chlorophenyl)-3-(3-hydroxycyclohexyl)-8-(pyridin-3-yl)pyrido[3,4-d]pyrimidin-4(3H)-one], the IC50 is below 10 nM. Turning to `Cn1cc(-c2nc(-c3ccc(Cl)cc3)cc3c(=O)n(C4CCCC(O)C4)cnc23)cn1` (stereo not drawn) [Example 64, 6-(4-chlorophenyl)-3-(3-hydroxycyclohexyl)-8-(1-methyl-1H-pyrazol-4-yl)pyrido[3,4-d]pyrimidin-4(3H)-one], the IC50 was 10 to 100 nM. As to `O=c1c2cc(-c3ccc(C(F)(F)F)nc3)nc(-c3cccnc3)c2ncn1[C@@H]1CC[C@H](O)C1` [Example 65, 3-((1R,3S)-3-hydroxycyclopentyl)-8-(pyridin-3-yl)-6-(6-(trifluoromethyl)pyridin-3-yl)pyrido[3,4-d]pyrimidin-4(3H)-one], the 50% inhibitory concentration (IC50) is below 10 nM. As for `CN1CCN(c2ccc(-c3cc4c(=O)n(CC(O)CO)cnc4c(-c4cccnc4)n3)cc2)CC1` (stereo not drawn) [Example 68, 3-(2,3-dihydroxypropyl)-6-(4-(4-methylpiperazin-1-yl)phenyl)-8-(pyridin-3-yl)pyrido[3,4-d]pyrimidin-4(3H)-one], the half-inhibitory concentration (IC50) was above 1000 nM. On the same count and under the same terms, the figure for `O=c1c2cc(-c3ccc(C(F)(F)F)cc3)nc(-c3cccnc3)c2ncn1C(CO)CO` [Example 69, 3-(1,3-dihydroxypropan-2-yl)-8-(pyridin-3-yl)-6-(4-(trifluoromethyl)phenyl)pyrido[3,4-d]pyrimidin-4(3H)-one] is below 10 nM; for `O=c1c2cc(-c3ccc(Cl)cc3)nc(-c3cccnc3)c2ncn1C(CO)CO` [Example 70, 6-(4-chlorophenyl)-3-(1,3-dihydroxypropan-2-yl)-8-(pyridin-3-yl)pyrido[3,4-d]pyrimidin-4(3H)-one] it is below 10 nM.

As to `O=c1c2cc(-c3cnc(C(F)(F)F)nc3)nc(-c3cccnc3)c2ncn1[C@@H]1CC[C@H](O)C1` [Example 72, 3-((1R,3S)-3-hydroxycyclopentyl)-8-(pyridin-3-yl)-6-(2-(trifluoromethyl)pyrimidin-5-yl)pyrido[3,4-d]pyrimidin-4(3H)-one, TFA salt], the concentration for half-maximal inhibition (IC50) lay in the range of 10 to 100 nM.

The record behind these values is patent publication US20230147257A1 (DONG-A ST CO., LTD., priority 2020, published 2023).
